These results are taken from publication PMC11413682 (Acta Pharmaceutica Sinica. B, 2024).

Like-named read-outs stand apart in the source and are kept apart here. No end group written: not given here.

This experiment deals with T1, CUL2^ZYG11B (residues 490–728) (Homo sapiens, UniProt Q9C0D3).
T1 construct: PCR was used to amplify CUL2^ZYG11B (residues 490–728); 6×His-SUMO (TEV-cleavable) (N, cleaved yes); made in house; host or cells: E. coli
Nature of the experiment: ITC binding of ORF10 NTE synthetic peptides to CUL2^ZYG11B.

Where [1] appears, read: figure panels, […], repeated 3 times, read-out: Kd.

T1 sequence (Q9C0D3 490-728): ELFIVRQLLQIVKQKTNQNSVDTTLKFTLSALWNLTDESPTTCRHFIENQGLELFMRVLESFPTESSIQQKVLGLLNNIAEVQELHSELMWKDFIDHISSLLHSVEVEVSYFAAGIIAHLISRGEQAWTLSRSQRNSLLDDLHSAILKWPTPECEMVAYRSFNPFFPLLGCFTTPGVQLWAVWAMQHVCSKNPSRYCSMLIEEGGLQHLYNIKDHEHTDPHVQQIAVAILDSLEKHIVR

In general, Kd refers to the equilibrium constant for the complex coming apart. AYINV [SARS-2 ORF10 N5-G1A] had a Kd of 12.4 µM.

For the substance GFINV [SARS-2 ORF10 N5-Y2F], the Kd under setting [1] is 4.73 µM.

Take GYANV [SARS-2 ORF10 N5-I3A]: the Kd under setting [1] came to 5.61 µM.

On to GYFNV [SARS-2 ORF10 N5-I3F], for which, under setting [1], the Kd came to 0.87 µM.

Turning to GYIAV [SARS-2 ORF10 N5-N4A], under setting [1], the dissociation constant (Kd) worked out at 0.59 µM.

Regarding “PYINV [SARS-2 ORF10 N5-G1P, altered peptide derived from SARS-CoV-2 ORF10 N5, G1P]”, for the setting “ITC”, the “binding to CUL2^ZYG11B (in words)” value was “abolished”.
